Results from patent US10172868B2, “Substituted quinazolines for inhibiting kinase activity” (NeuPharma, Inc., priority 2013, dated 2019).

How the values were obtained:
[1] = target: FGFR2 (Homo sapiens (Human), UniProt P21802); test: Z'-LYTE kinase inhibition assay, FGFR2; format: biochemical; conditions: read-out: IC50 against FGFR2
Method: (§1) Inhibitory activities of compounds against BTK, EGFR and EGFR mutants (EGFR L858R, EGFR T790M, EGFR L858R/T790M), FGFR1, FGFR2, JAK2, JAK3 and KDR were measured by Invitrogen using Z'-LYTE® Method as briefly described in the following.
(§2) Test Compounds are screened in 1% DMSO (final) in the well. For 10 point titrations, 3-fold serial dilutions are conducted from the starting concentration. All ATP Solutions are diluted to a 4× working concentration in Kinase Buffer (50 mM HEPES pH 7.5, 0.01% BRIJ-35, 10 mM MgCl2, 1 mM EGTA). Peptide/Kinase Mixtures are diluted to a 2× working concentration in the appropriate Kinase Buffers as described below.
(v) Peptide/Kinase Mixtures for Measurement of FGFR2:
The 2×FGFR2/Tyr 04 mixture is prepared in 50 mM HEPES pH 7.5, 0.01% BRIJ-35, 10 mM MgCl2, 4 mM MnCl2, 1 mM EGTA, 2 mM DTT. The final 10 μL Kinase Reaction consists of 0.19-2.36 ng FGFR2 and 2 μM Tyr 04 in 50 mM HEPES pH 7.5, 0.01% BRIJ-35, 10 mM MgCl2, 2 mM MnCl2, 1 mM EGTA, 1 mM DTT. After the 1 hour Kinase Reaction incubation, 5 μL of a 1:64 dilution of Development Reagent B is added.
Reaction starts by 30-second shaking of mixture consisting of 2.5 μL 4× test compound, […] 2× kinase reaction mixture and 2.5 μL 4×ATP Solution on Bar-coded Corning, low volume NBS, black 384-well plate (Corning Cat. #3676). […] Finally fluorescence is read by plate reader. […]

[2] = target: KDR (VEGFR2) (Homo sapiens (Human), UniProt P35968); test: Z'-LYTE kinase inhibition assay, KDR; format: biochemical; conditions: read-out: IC50 against KDR
Method: as §1, §2
(v) Peptide/Kinase Mixtures for Measurement of KDR (VEGFR2):
The 2×KDR (VEGFR2)/Tyr 01 mixture is prepared in 50 mM HEPES pH 7.5, 0.01% BRIJ-35, 10 mM MgCl2, 1 mM EGTA. The final 10 μL Kinase Reaction consists of 0.5-11.7 ng KDR (VEGFR2) and 2 μM Tyr 01 in 50 mM HEPES pH 7.5, 0.01% BRIJ-35, 10 mM MgCl2, 1 mM EGTA. After the 1 hour Kinase Reaction incubation, 5 μL of a 1:256 dilution of Development Reagent B is added.
(§3) Reaction starts by 30-second shaking of mixture consisting of 2.5 μL 4× test compound, […] 2× kinase reaction mixture and 2.5 μL 4×ATP Solution on Bar-coded Corning, low volume NBS, black 384-well plate (Corning Cat. #3676). Then the mixture is incubated for 60-minute at room temperature for the kinase reaction, followed by addition of 5 μL of a 1:1024 dilution of development reagent A and 30-second plate shake. The mixture is then incubated for another 60-minute at room temperature for development reaction. Finally fluorescence is read by plate reader.
(§4) To determine IC50 of a compound against EGFR, EGFR mutant and other kinases, a series of concentrations of the compound were tested for the inhibition. […] The scale utilized in Table 4 is as follows: +++ less than 100 nM, ++ 100-500 nM and + greater than 500 nM.

[3] = target: JAK3 (Homo sapiens (Human), UniProt P52333); test: Z'-LYTE kinase inhibition assay, JAK3; format: biochemical; conditions: read-out: IC50 against JAK3
Method: as §1, §2
(v) Peptide/Kinase Mixtures for Measurement of JAK3:
The 2×JAK3/Tyr 06 mixture is prepared in 50 mM HEPES pH 7.5, 0.01% BRIJ-35, 10 mM MgCl2, 1 mM EGTA. The final 10 μL Kinase Reaction consists of 0.29-1.34 ng JAK3 and 2 μM Tyr 06 in 50 mM HEPES pH 7.5, 0.010/% BRIJ-35, 10 mM MgCl2, 1 mM EGTA. After the 1 hour Kinase Reaction incubation, 5 μL of a 1:64 dilution of Development Reagent A is added.
as §3, §4

[4] = test system: H1975 tumor xenografts; test: Inhibition of tumor growth in H1975 xenograft model; format: in vivo, BALB/c female nude mice; conditions: QD x 14; for Tumor Volume Pre-treatment: baseline before treatment
Method: H1975 cells were implanted in BALB/c female nude mice and grown as tumor xenografts. When tumors achieved 120-200 mm^3, mice were assigned into treatment and control groups using randomized block design based upon their tumor volumes. Each group contained 6 tumor-bearing mice. Tumors were measured twice weekly in two dimensions using a caliper, and the tumor volume was calculated from two-dimensional measurements using the equation V=0.5×a×b^2 where a and b are the long and short diameters of the tumor, respectively. Relative tumor volume (RTV) was defined as TVt/TVi, the ratio of the volume on a given day (TVt) and the volume at the start of treatment (TVi). Relative tumor growth rate (T/C) was defined as RTVT/RTVC, the ratio of relative tumor volume of treatment group (RTVT) and relative tumor volume of control group (RTVC) on a given day.

[5] = 30 mg/kg, Intraperitoneal injection

JAK3, sequence (P52333 whole entry): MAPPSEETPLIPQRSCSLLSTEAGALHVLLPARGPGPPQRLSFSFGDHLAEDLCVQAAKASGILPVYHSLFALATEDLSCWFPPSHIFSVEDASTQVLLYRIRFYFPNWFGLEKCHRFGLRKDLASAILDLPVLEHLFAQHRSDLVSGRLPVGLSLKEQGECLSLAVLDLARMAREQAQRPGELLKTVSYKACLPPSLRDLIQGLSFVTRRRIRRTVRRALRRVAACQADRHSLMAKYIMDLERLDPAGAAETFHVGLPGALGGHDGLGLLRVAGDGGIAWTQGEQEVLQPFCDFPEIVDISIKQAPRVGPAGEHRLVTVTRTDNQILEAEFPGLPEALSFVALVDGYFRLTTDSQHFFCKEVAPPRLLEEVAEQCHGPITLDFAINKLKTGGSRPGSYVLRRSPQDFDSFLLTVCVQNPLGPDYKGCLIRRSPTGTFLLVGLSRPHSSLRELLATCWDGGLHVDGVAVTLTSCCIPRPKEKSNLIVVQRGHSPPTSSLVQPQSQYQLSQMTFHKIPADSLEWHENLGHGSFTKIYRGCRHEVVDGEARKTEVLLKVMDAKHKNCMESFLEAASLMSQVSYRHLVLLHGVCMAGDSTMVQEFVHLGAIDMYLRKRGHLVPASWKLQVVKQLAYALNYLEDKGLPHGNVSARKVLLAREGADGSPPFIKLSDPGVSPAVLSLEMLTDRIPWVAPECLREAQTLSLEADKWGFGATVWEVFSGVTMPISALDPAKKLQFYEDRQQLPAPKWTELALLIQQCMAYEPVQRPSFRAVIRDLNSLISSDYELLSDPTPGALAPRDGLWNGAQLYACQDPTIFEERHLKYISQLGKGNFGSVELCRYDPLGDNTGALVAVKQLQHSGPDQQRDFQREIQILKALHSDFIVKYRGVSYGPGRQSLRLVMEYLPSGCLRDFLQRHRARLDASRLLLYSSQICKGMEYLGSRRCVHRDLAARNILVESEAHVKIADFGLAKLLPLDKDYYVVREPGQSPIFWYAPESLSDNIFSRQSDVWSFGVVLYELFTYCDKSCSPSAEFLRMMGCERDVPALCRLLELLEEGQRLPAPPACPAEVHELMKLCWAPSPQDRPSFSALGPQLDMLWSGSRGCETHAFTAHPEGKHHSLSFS
KDR (VEGFR2), sequence (P35968 20-1356): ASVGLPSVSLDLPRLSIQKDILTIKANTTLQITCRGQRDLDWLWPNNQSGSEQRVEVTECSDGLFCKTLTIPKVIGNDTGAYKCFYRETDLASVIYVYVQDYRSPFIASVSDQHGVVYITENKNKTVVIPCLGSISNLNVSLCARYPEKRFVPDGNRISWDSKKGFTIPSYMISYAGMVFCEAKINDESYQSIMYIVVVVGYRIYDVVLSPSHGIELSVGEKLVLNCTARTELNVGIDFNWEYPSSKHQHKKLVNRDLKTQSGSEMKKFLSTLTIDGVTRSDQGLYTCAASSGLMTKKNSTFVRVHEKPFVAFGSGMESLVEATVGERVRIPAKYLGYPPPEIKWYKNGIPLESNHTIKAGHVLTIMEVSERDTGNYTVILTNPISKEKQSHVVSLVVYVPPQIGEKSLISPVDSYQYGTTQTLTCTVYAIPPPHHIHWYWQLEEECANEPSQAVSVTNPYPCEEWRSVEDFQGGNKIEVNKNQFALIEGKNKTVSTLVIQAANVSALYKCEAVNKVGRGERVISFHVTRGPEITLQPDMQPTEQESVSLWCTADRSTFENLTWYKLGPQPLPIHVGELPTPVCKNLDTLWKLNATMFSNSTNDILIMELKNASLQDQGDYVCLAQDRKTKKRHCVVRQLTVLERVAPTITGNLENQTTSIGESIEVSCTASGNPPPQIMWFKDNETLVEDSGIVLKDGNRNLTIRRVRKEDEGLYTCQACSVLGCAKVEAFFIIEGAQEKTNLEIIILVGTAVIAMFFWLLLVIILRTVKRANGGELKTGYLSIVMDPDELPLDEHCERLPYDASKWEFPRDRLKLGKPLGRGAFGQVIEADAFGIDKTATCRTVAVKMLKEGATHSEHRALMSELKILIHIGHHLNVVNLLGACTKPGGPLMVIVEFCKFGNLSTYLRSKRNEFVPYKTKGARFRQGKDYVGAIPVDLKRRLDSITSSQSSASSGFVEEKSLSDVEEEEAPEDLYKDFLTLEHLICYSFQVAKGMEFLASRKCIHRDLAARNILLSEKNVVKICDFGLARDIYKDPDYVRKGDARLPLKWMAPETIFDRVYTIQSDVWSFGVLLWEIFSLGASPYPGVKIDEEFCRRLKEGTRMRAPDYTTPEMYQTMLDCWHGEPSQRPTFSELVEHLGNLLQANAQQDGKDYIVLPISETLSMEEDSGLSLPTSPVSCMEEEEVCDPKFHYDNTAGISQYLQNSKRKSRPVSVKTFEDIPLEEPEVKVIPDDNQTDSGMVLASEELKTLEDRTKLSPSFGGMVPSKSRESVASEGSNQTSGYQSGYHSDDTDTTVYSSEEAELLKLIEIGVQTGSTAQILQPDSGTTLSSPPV
FGFR2, sequence (P21802 22-821): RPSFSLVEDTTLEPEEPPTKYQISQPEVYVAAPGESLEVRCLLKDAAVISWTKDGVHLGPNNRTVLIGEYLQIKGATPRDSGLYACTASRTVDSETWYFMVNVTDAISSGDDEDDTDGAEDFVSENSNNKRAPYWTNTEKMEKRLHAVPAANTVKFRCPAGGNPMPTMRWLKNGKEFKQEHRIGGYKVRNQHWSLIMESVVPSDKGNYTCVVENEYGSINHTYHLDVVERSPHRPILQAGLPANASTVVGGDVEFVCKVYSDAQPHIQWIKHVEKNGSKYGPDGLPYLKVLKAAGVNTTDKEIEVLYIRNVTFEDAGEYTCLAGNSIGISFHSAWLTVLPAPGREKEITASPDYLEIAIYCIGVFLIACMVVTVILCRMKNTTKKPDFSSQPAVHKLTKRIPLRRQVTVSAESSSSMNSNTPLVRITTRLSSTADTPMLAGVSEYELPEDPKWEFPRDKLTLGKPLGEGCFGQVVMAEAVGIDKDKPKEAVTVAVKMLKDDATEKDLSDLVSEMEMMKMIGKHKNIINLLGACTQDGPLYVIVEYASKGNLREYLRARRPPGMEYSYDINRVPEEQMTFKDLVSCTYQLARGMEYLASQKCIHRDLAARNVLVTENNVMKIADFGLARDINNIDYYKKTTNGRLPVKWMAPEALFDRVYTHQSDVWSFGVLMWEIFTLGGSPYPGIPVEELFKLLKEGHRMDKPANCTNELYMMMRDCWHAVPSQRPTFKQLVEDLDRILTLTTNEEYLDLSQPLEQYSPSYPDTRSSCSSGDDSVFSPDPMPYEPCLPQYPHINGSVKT

SMILES: C=CC(=O)Nc1cccc(-c2cccc3cnc(Nc4ccc(N5CCN(C)CC5)cc4)nc23)c1 [Example C021, N-(3-(2-((4-(4-methylpiperazin-1-yl)phenyl)amino)quinazolin-8-yl)phenyl)acrylamide]
- IC50 [1]: < 100 nM
- IC50 [2]: < 100 nM
- IC50 [3]: < 100 nM
- T/C (relative tumor growth rate) ([4]; 60 mg/kg, Oral): 30.5%
- Tumor Volume Post-treatment ([4]; 60 mg/kg, Oral): 633.5 mm^3
- Tumor Volume Pre-treatment ([4]; 60 mg/kg, Oral): 152.5 mm^3

SMILES: C=CC(=O)Nc1cccc(-c2cccc3cnc(Nc4ccc(N5CCN(C)CC5)nc4)nc23)c1 [Example C041, N-(3-(2-((6-(4-methylpiperazin-1-yl)pyridin-3-yl)amino)quinazolin-8-yl)phenyl)acrylamide]
- IC50 [2]: < 100 nM
- IC50 [3]: < 100 nM
- T/C (relative tumor growth rate) [4, 5]: 48.7%
- Tumor Volume Post-treatment [4, 5]: 1021.2 mm^3
- Tumor Volume Pre-treatment [4, 5]: 151.7 mm^3

SMILES: C=CC(=O)Nc1cccc(-c2cccc3cnc(Nc4ccc(N5CCN(C)CC5)cc4F)nc23)c1 [Example C044, N-(3-(2-((2-fluoro-4-(4-methylpiperazin-1-yl)phenyl)amino)quinazolin-8-yl)phenyl)acrylamide]
- IC50 [3]: < 100 nM

SMILES: C=CC(=O)Nc1cccc(-c2cccc3cnc(Nc4ccc(N5CCN(CCO)CC5)cc4)nc23)c1 [Example C059, N-(3-(2-((4-(4-(2-hydroxyethyl)piperazin-1-yl)phenyl)amino)quinazolin-8-yl)phenyl)acrylamide]
- IC50 [2]: < 100 nM
- IC50 [3]: < 100 nM
- T/C (relative tumor growth rate) ([4]; 60 mg/kg, Oral): 35.3%
- Tumor Volume Post-treatment ([4]; 60 mg/kg, Oral): 746.4 mm^3
- Tumor Volume Pre-treatment ([4]; 60 mg/kg, Oral): 151.6 mm^3
